“Also recorded” adds a separate entry of the source.
Tests used:
Format in all cases: physicochemical
[1] = Atomic force microscopy of peptide self-assembly; conditions: ultrapure water, 0.25 mg/mL
Protocol: To confirm the self-assembly of β-tetrapeptides 1 and 2 into fibres, atomic force microscopy (AFM) was performed on a Nanoscope IV AFM with a Multimode head using a vertical engage ‘E’ scanner. A 2 μL peptide solution in MilliQ (ultrapure) water (0.25 mg/mL) was prepared and placed on a clean mica surface. A low concentration of peptide was necessary to avoid contamination the probe. The peptide solution was air-dried for 30 minutes, followed by further drying with a stream of N2 gas. Images were obtained under tapping mode with NSC-15 ‘B’ silicon cantilevers (Micromasch, Tallinn, Estonia) with a nominal force constant of 40 and 20 N/m for 1 and 2, respectively. Topographic, phase and amplitude images at a resolution of 512×512 were simultaneously obtained using scan frequency of 1 Hz with typical scan sizes of 5 μm×5 μm and 2 μm×2 μm. Images were processed with a sequence of plane fitting and offset flattening using Gwyddion 2.29 (www.gwyddion.net) software.

[2] = Inversion test for hydrogel formation (gelation); conditions: for Gelation result: 37° C., 24 hours
Protocol: An inversion test was used to qualitatively assess different solvent conditions and concentrations of 1 and 2 for forming a non-flowing, self-supporting stable hydrogel (Liebman, T., et al., 2007). Peptide solubility was tested using a variety of solvents and solvent mixtures: MilliQ (ultrapure) water, phosphate buffered saline (PBS) 1× (Sigma P3813), PBS 10× (Sigma P3813) and Dulbecco's Modified Eagle's Medium/Nutrient Mixture F-12 Ham (DMEM/F12) (Sigma D8437). 100 μL or 50 μL of solvent was added to 0.5 mg of peptide in a glass vial to achieve a final concentration of 5 or 10 mg/mL, respectively. The solution was vortexed up to 30 mins until all the peptide particles had dissolved and left to self-assemble and gelate for 30 minutes at room temperature.

[3] = Rheological characterisation (parallel plate rheometer); conditions: strain sweep 1% to 100% over 20 minutes, 1 Hz, 37° C.
Protocol: Rheological measurements were undertaken using an Anton Paar Physical parallel plate rheometer at 37° C. Hydrogels were prepared in 75% MilliQ Water/25% DMEM/F12 using 10 mg/mL of the following: 100% 1, 50% 1/50% 2, and 100% 2. The hydrogel solutions were made just prior to experiment and vortexed thoroughly, and then immediately pipetted onto the base. A top plate with diameter 8 mm was lowered to form a measurement gap size of 0.1 mm. In an oscillatory time sweep test, the storage (elastic, G′) and loss (viscous, G″) moduli were measured with strain applied at 1% at a constant frequency of 1 Hz. For the cyclic step-strain test, after 20 minutes, the strain was increased to 100% for 1 minute to mechanically shear the hydrogel before it is returned to 1% strain. This was repeated an additional 2 times. The plateau modulus was calculated as the average of the storage modulus at the end of each 20-minute gelation cycle. A strain sweep was conducted from 1% to 100% strain over the 20 minutes with a constant frequency of 1 Hz. The gel-to-sol transition point was determined at the strain at which the storage and loss modulus equalled in value. A dynamic frequency sweep was performed from 0.01 to 10 Hz with a constant strain of 1%. All measurements were obtained in triplicate and all figures are presented as the average of those triplicates.

[4] = 50% MilliQ Water/50% DMEM/F12, 5 mg/mL
[5] = 50% MilliQ Water/50% DMEM/F12, 10 mg/mL
[6] = 75% MilliQ Water/25% DMEM/F12, 5 mg/mL
[7] = 75% MilliQ Water/25% DMEM/F12, 10 mg/mL

Structure (SMILES)	entanglement of the fibres (AFM) [1]	spontaneous self-assembly into fibres (AFM) [1]	time within which the hydrogel reverts back to a solution ([2]; 1:1 MilliQ Water and DMEM/F12, both 5 and 10 mg/mL)	duration of stable hydrogel under physiological conditions ([2]; 3:1 MilliQ Water:DMEM/F12, 10 mg/mL)	Gelation result [2, 4]	Gelation result [2, 5]	Gelation result [2, 6]	Gelation result [2, 7]	Gelation result ([2]; DMEM/F12, 5 mg/mL)	Gelation result ([2]; DMEM/F12, 10 mg/mL)	Gelation result ([2]; MilliQ water, 5 mg/mL)	Gelation result ([2]; MilliQ water, 10 mg/mL)	peptide dissolution ([2]; MilliQ water, both 5 and 10 mg/mL)	Gelation result ([2]; PBS 1×, 5 mg/mL)	Gelation result ([2]; PBS 1×, 10 mg/mL)	Gelation result ([2]; PBS 10×, 5 mg/mL)	Gelation result ([2]; PBS 10×, 10 mg/mL)	peptide dissolution ([2]; 5 mg/mL, MilliQ water, PBS 1×, PBS 10×, DMEM and 50% MQ Water/50% DMEM/F12)	Strain for gel-to-sol Transition [3]
CCCCCCCCCCCCCC(=O)NCC(CC(=O)NC(C)CC(=O)NC(CCCCN)CC(=O)NC1COC(=O)C1)NC(C)=O (stereo not drawn) [compound 1, Ac-Az(Myr)AKS*-Lac]	propensity for the nanofibres to aggregate together and form bundles	distinct nanofibres	≤ 24 h	over several weeks	Unstable gel	Unstable gel	Unstable gel	long-lasting stable hydrogel; also recorded: Stable gel	Liquid (liquid (has the same flow as water))	Poor dissolution	Liquid (liquid (has the same flow as water))	more viscous solution; also recorded: Viscous liquid	readily dissolved	Viscous liquid	prevented the peptide from being completely dissolved; also recorded: Poor dissolution	Viscous liquid	prevented the peptide from being completely dissolved; also recorded: Poor dissolution		
CCCCCCCCCCCCCC(=O)NCC(CC(=O)NC(C)CC(=O)NC(CC(=O)NC1COC(=O)C1)C(=O)NCCNC(=O)C(CC(=O)O)NC(=O)CNC(=O)C(CCCNC(=N)N)NC(C)=O)NC(C)=O (stereo not drawn) [compound 2, Ac-Az(Myr)AX(RGD)S*-Lac]	more wide-spread and mesh-like	distinct nanofibres			liquid solution; also recorded: Liquid (liquid (has the same flow as water))	Unstable gel	Unstable gel	Stable gel	liquid solution; also recorded: Liquid (liquid (has the same flow as water))	Unstable gel	liquid solution; also recorded: Liquid (liquid (has the same flow as water))	Liquid (liquid (has the same flow as water))		liquid solution; also recorded: Liquid (liquid (has the same flow as water))	Viscous liquid	liquid solution; also recorded: Liquid (liquid (has the same flow as water))	Poor dissolution	readily dissolved	31%
